In PMC10709440, “High-throughput ligand profile characterization in novel cell lines expressing seven heterologous insect olfactory receptors for the detection of volatile plant biomarkers” (Scientific Reports, 2023):

Columns and labels:
[1] = biological target: T1, Drosophila OR10a (Drosophila melanogaster, UniProt Q9VYZ1); test: cell-based; set-up: GCaMP6 calcium fluorescence in stable HEK293 OR+ORCO lines; peak dF normalised to 50 uM VUAA1 (=1); conditions: HEK293; relative to 50 uM VUAA1 response; below 0.05 set to 0; read-out: % activation
T1 construct: expressed in transfected cells
T1 sequence (Q9VYZ1 1-406): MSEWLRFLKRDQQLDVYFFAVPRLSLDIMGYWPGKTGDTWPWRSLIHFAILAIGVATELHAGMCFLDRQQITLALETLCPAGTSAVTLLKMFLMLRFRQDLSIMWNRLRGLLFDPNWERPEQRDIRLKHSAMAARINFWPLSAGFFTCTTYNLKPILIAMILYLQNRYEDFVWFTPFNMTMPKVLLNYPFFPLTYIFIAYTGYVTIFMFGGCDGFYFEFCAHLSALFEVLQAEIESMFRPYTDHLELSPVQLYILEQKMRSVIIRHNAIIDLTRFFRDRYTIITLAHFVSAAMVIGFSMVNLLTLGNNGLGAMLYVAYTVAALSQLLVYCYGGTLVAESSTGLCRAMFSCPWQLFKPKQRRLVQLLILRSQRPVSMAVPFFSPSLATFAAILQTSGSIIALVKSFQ
T1 sequence (Q9VNB5 1-486 partner): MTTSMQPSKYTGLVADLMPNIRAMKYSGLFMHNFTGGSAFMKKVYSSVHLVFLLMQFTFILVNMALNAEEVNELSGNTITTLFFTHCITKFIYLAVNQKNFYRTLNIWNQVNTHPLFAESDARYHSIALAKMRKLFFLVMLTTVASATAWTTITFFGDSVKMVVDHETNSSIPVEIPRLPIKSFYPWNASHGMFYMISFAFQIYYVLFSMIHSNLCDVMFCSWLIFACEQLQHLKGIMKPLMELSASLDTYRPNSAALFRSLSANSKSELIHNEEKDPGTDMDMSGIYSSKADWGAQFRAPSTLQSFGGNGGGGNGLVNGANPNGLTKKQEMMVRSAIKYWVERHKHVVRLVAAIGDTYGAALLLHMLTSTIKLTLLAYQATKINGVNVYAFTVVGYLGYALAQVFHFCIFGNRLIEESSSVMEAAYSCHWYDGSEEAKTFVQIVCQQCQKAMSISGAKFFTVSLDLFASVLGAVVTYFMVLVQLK
Experimental: (§1) Twelve thousand to 18,000 cells were plated into each well of a black wall, transparent bottom 384-well microplate (Greiner) 48 h or 72 h before the measurements and were simultaneously treated with 1 μg/mL doxycycline. Typically, three columns were filled with one OR expressing cell line, each row was treated with the same compound (three technical replicates for each OR), and each responsive VOC-OR combination was measured at least three times on different days. The plate has 24 columns, thus we could record responses in up to eight different cell lines in each plate. On the day of the experiment, the growth medium was replaced with 20 µL assay buffer/well (140 mM NaCl, 5 mM KCl, 2 mM CaCl2, 1 mM MgCl2, 5 mM HEPES-Na, 20 mM glucose, pH 7.3, 340 mOsm). […] Baseline fluorescence (F0) was recorded for 5 s, after which 7 µL VOC buffer (140 mM NaCl, 5 mM KCl, 2 mM CaCl2, 1 mM MgCl2, 5 mM HEPES-Na, 31 mM glucose, 0.1% DMSO, pH 7.3, 340 mOsm) was injected into each well in one row and the fluorescence response was recorded for an additional 30 s, at a rate of one read/sec. VOC solutions (VOC buffer with 4× concentration of the final measured VOC concentration, 9 µL/well was injected) were measured on the same wells in a second round with the same protocol. Each individual concentration of a specific VOC sample was recorded in three wells for the same cell line on the same microplate. The raw data were exported in xls file format, F0 and FMAX values, and the fluorescence intensity changes (∆F) were calculated in Excel (Microsoft) (Supplementary file Data summary.xlsx) using the following equation: ΔF=FMAX-F0/F0 (see also Fig. 1C). On each plate, we recorded the response of each cell line to 50 µM VUAA1. The average of these ∆F values of each cell line were used to calculate the VUAA1-normalized values for the rest of the plate, by dividing VOC response ∆F values by the average VUAA1 response ∆F value of the corresponding OR cell line. Each VOC-OR combination was measured three times as tec The recorded FMAX, F0, ∆F, VUAA1-normalized ∆F values, as well as the OR name, the name of the tested sample, and the final concentration for each well were copied into supplementary file Data summary.xlsx, that was used to summarize all the plates recorded. Here, the averages of the measurements were calculated for each receptor-VOC-concentration combination. […] Each VOC was measured at 1, 10, and 100 µM final concentration on each receptor. VUAA1-normalized response was calculated as described in methods. Values are averages of at least three biological replicates for responsive combinations and two for the non-responsive combinations. The chemical structures of the strong and medium ligands are shown for each cell line. Heat map: white-green colors correspond to the lowest-highest values measured for each cell line.

[2] = biological target: T2, Drosophila OR85b (Drosophila melanogaster, UniProt Q9VHQ7); test: cell-based; set-up: GCaMP6 calcium fluorescence in stable HEK293 OR+ORCO lines; peak dF normalised to 50 uM VUAA1 (=1); conditions: HEK293; relative to 50 uM VUAA1 response; below 0.05 set to 0; read-out: % activation
T2 construct: expressed in transfected cells
T2 sequence (Q9VHQ7 1-390): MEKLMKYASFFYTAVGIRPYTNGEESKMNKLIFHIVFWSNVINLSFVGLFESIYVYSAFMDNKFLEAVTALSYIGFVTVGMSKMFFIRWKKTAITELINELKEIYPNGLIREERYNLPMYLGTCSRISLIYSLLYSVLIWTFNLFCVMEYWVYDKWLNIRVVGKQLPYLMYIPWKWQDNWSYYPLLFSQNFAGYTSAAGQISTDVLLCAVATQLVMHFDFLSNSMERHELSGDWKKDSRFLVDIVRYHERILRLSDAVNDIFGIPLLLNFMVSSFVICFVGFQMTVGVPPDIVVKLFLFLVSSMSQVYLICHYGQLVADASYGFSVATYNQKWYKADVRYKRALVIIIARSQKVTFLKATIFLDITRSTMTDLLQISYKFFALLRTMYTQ
T2 sequence (Q9VNB5 1-486 partner): T1 sequence (Q9VNB5 1-486 partner)
Experimental: as §1

Compound: CC/C=C/CCO [e3-hexenol]
- activity at 1 µM [1]: 0%
- activity at 10 µM [1]: 0%
- activity at 100 µM [1]: 7.4%
- activity at 1 µM [2]: 0%
- activity at 10 µM [2]: 0%
- activity at 100 µM [2]: 0%
